Experimental data taken from paper PMC7669657 (Nature chemical biology, 2020).

What was measured:
[1] = target: T1, NSD1 SET domain (Homo sapiens, UniProt Q96L73); format: binding; details: 150 μM 15N NSD1 SET, 1H-15N HSQC
T1 sequence (Q96L73 1852-2085): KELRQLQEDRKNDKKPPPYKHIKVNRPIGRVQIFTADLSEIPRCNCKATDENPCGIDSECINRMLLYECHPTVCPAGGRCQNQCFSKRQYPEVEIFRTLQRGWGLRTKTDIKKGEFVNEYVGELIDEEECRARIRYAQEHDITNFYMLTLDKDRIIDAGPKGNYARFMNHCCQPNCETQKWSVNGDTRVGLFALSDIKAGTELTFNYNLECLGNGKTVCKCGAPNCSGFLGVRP

[2] = target: T2, NSD1 SET domain (Homo sapiens, UniProt Q96L73); assay: MS covalent engagement and kinetics, NSD1 SET; format: binding; details: 1 μM NSD1 SET, 50 μM compound, 18 h, 32 °C
T2 sequence (Q96L73 1852-2105): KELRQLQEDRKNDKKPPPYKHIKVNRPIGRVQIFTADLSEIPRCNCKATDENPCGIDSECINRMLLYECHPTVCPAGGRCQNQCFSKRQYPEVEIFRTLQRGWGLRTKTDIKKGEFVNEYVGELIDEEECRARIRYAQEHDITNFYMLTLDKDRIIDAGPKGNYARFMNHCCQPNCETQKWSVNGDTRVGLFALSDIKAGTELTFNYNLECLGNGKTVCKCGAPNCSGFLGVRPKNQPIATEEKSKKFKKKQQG

| covalent binding by MS [2] | Structure (SMILES) | chemical shift perturbations / binding by NMR [1] |
| --- | --- | --- |
|  | COc1cc(Br)cc2sc(N)nc12 [Compound 8] | less pronounced chemical shift perturbations |
| lack covalent binding | NC(=O)/C=C/c1cc(O)c2nc(N)sc2c1 [Compound 9] | only weakly interact |
